Results taken from patent US9259453B2, “Use of salmonella flagellin derivative in preparation of drug for preventing and treating inflammatory bowel diseases” (priority 2011, dated 2016).
Entries after “also recorded” stand apart in the source; their conditions may differ.

How the values were obtained:
IBD patients = details: cited from earlier work
[1] = tested on: mice with ulcerative colitis in TNBS modeling; test: Prevention of TNBS-induced IBD in mice, Example 3; type: in vivo, BALB/c mice
Procedure: Experimental Animals: the same as in Example 2.
Reagents: the same as in Example 2.
Model preparation: the same as in Example 2.
Experimental animal groups: model group, prevention group and control group (n=8). The prevention group: BALB/c mice were treated therapeutically with CBLB502 (3.2 mg/kg) before TNBS administration, and then the mice were given TNBS and normal feeding two days. The model group was normal feeding two days after TNBS administration. The control mice received 38% ethanol alone by using the same method described above, and normal feeding.
Test contents and test methods: the same as in Example 2.

TLR family = test: Expression of TLR family in colon by RT-PCR after treatment in TNBS modeling; type: in vivo, BALB/c mice; details: 3.2 mg/kg 4 h after TNBS
Description: The colon samples were removed at the indicated times, washed with phosphate-buffered saline (pH 7.2), and cut in small pieces. Total RNA of colon samples what were control group, modeling group and treatment group were extracted by Total RNA kits II (Omega, Japan) according to the manufacturers' instructions, and then reverse-transcribed by the Reverse Transcription System (Sigma, USA). Subsequently, the TLRs and β-actin were amplified by PCR using the following primers (Table 1). The reaction system of PCR was 500, Ex Taq 0.250, 10× buffer 5 μl, dNTP 5 μl, template 2 μl, the upstream and downstream primers 1 μl, ddH2O 35.75 μl. The reaction condition of PCR is 95° C. 5 min, 95° C. 45 sec, 62° C. 45 sec, 72° C. 1 min, total 25 cycles, and then 72° C. 5 min. PCR products were identified on 2% agarose-gel electrophoresis followed by image analysis software.

[2] = tested on: mice with ulcerative colitis in TNBS modeling; test: Treatment of TNBS-induced ulcerative colitis (IBD) in mice, Example 2; type: in vivo, BALB/c mice
Procedure: Experimental Animal: Male BALB/c mice (7-8 weeks old, 25±5 g) were obtained from Experimental Animal Center of Academy of Military Medical Sciences (Beijing, China). Mice were provided sterile food and water, and 12 h light/12 h dark cycle. All animal experiments were approved by the Institutional Animal Care and Use Committee at Academy of Military Medical Sciences.
Reagents: 2,4,6-trinitrobenzene sulfonic acid (TNBS, were purchased from Sigma Chemical Co.), CZLC331 (prepared in Example 1), RT PCR kit (ID isFSK100, purchased from Toyobo Biotechnology Co., Ltd.).
Model preparation: Mice (hunger for 36 h) were anesthetized with isoflurane using anesthesia machine. To induce IBD, 150 mg/kg of TNBS (Sigma-Aldrich) in 38% ethanol (to break the intestinal epithelial barrier) was administered by the mouse gavage needle equipped with a 1 ml syringe, what the diameter of silicone tube is 2. 0 mm and the length is about 10 cm, the gavage needle was advanced into the rectum until the tip was 4 cm proximal to the anal verge. The total injection volume was 100 μl.
Experimental animal groups: model group, treatment group and control group (n=8). The control mice received 38% ethanol alone by using the same method described above, and normal feeding two days. The treatment group: BALB/c mice were treated therapeutically with CBLB502 (3.2 mg/kg) at 0.5 h after TNBS administration. At the same time, BALB/c mice were treated therapeutically with CBLB502 (0.2-6.4 mg/kg) from 0.5 h to 8 h after TNBS administration, and normal feeding two days. The mice of model group were normal feeding two days after TNBS administration.
Mice were monitored for the appearance of diarrhea, changes of body weight, and overall mortality. At the end of the experiment after TNBS administration two days, surviving mice were killed, blood samples were collected by cardiac puncture, and a 7-cm segment of the colon was excised for macroscopic (FIG. 1, FIG. 4 left, and FIG. 5) and microscopic damage evaluation (FIG. 2, FIG. 4 right, and FIG. 6). And the end of the colon after washing using physiological saline was kept at −80° C. frozen for follow-up testing.
2. Histological examination: The colonic samples were fixed in 4% buffered formalin overnight and then transferred to 70% ethanol, embedded in paraffin for sectioning, and then stained with hematoxylin and eosin (H&E) to examine the histological differences.

[3] = statement, no test described; cited from earlier work
[4] = given 0.5 h before TNBS modeling, two days, versus model group

| Compound | side effects (IBD patients; after taking the drug) | effective rate (IBD patients; clinical drug) | markedly effective rate (IBD patients; clinical drug) [%] | onset (time until symptoms improved) (IBD patients; clinical) | clinical signs: blood in the stool, eat less, move less [1, 4] | colon: congestion, edema, hemorrhage [1, 4] | prevention of IBD (overall) ([1]; given before TNBS modeling) | expression of TLR6 (TLR family; raised in model group) | expression of TLR7 (TLR family; raised in model group) | expression of TLR8 (TLR family; raised in model group) | expression of TLR family (TLR family; versus model group) | clinical signs: blood in the stool, feeding/water intake, activity ([2]; 0.2-6.4 mg/kg intraperitoneal, 0.5 h to 8 h after TNBS, two days, versus model group) | colon appearance: congestion, edema, hemorrhage, ulcers ([2]; 0.2-6.4 mg/kg, 0.5 h to 8 h after TNBS, two days, versus model group) | colonic mucosa HE staining: cell structure, goblet cells, lymphocyte and neutrophil infiltration ([2]; 0.2-6.4 mg/kg, 0.5 h to 8 h after TNBS, versus model group) | cure rate ([2]; TNBS mice, intraperitoneal CZLC331) [%] | onset (time after administration to effect) ([2]; examples 2 and 3, all animals) [h] | effective rate ([2]; improvement of feeding, activity and blood in stool, all animals of treatment group and prevention group (examples 2 and 3)) [%] | effective rate of recovered colon mucosa ([2]; treatment group) [%] | side effects [3] | toxicity [3] |
| --- | --- | --- | --- | --- | --- | --- | --- | --- | --- | --- | --- | --- | --- | --- | --- | --- | --- | --- | --- | --- |
| O=C(O)c1cc(/N=N/c2ccc(S(=O)(=O)Nc3ccccn3)cc2)ccc1O [sulfasalazine] | nausea, rash, neutropenia | about 90% | 50 | about two | – | – | – | – | – | – | – | – | – | – | – | – | – | – | – | – |
| CZLC331: Salmonella flagellin derivative, SEQ ID NO: 3: Tat protein transduction peptide plus flagellin residues 1-176 and 402-505 joined by flexible linker; 331 amino acids | – | – | – | – | reduced | began reduce | protective effects | no significant differences | no significant differences | would change | significant differences with the model group | feeding/water intake of mice return to normal, the activities increased significantly and reduce blood in the stool; also recorded: reduced | significantly reduced; also recorded: began reduce | significantly reduced; also recorded: structures of cells were arranged in neat, a small number of goblet cells and lymphocyte and neutrophil infiltration were disappeared; also recorded: well results for treating | 70 | 24 | 100 | 75 | no significant side effects | non-toxic |
